Assay results reported in patent US4965266A, “Heteroarylcarboxamide derivatives, process for preparing the same and pharmaceutical composition containing the same” (Dainippon Pharmaceutical Co., Ltd., priority 1987, dated 1990).
Where a name gives a salt, the structure may show the parent alone.

Experiments:
5-lipoxygenase = target: T1, 5-lipoxygenase (Cavia porcellus, UniProt A0A286X958); assay: Inhibitory effect on 5-lipoxygenase activity (antiallergic activity in vitro); type: biochemical, guinea pig (male Hartley); settings: for inhibition at 10 µM: 10^-5 M test compound, guinea pig peritoneal exudate cell cytosol, mean of 3 to 6 experiments
T1 construct: A cytosol fraction of peritoneal exudate cell from male Hartley guinea pig (weighing 400 to 700 g) was used as 5-lipoxygenase; endogenous in cells; host or cells: cytosol fraction of peritoneal exudate cells from male Hartley guinea pig
T1 sequence (A0A286X958 1-674): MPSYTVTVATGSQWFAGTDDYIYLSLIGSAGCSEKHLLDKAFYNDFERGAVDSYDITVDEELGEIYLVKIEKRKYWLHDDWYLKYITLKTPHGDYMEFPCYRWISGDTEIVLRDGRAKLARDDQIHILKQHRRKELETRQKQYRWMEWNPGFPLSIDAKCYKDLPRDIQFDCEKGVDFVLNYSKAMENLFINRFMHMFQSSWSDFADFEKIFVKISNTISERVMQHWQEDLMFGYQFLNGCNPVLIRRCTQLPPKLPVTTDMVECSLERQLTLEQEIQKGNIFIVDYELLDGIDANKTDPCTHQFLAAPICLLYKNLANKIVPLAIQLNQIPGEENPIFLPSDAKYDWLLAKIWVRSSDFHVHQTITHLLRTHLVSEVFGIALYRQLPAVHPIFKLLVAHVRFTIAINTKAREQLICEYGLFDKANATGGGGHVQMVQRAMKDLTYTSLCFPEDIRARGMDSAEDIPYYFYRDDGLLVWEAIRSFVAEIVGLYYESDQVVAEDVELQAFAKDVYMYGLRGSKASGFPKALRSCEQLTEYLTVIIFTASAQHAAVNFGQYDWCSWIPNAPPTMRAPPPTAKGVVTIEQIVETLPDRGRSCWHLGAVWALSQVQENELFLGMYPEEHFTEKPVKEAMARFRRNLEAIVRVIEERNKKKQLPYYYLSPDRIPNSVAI
Experimental: This experiment was carried out by the method of Miyamoto and Obata ["Perspectives in Prostaglandin Research", ed. by Y. Shiokawa et al., Excerpta Medica, Amsterdam-Oxford-Princeton, 1983, p.78] with minor modifications.
A cytosol fraction of peritoneal exudate cell from male Hartley guinea pig (weighing 400 to 700 g) was used as 5-lipoxygenase. As a standard reaction solution, a mixture of 50 mM potassium phosphate buffer (pH 7.4), 1 mM calcium chloride, 1 mM glutathione, 1 mM adenosine triphosphate, 10 μM indomethacin and the enzyme was used. To the reaction solution was added 0.02 μCi of [1-^14 C] arachidonic acid and the mixture was incubated at 30° C. for 5 minutes, followed by adding 0.6 ml of a cold solution comprising diethyl ether methanol -0.2 M citric acid (30 : 4 : 1) to terminate the reaction. The organic layer (300 μ1) was subjected to a thin layer chromatography plate on silica gel 60 F254 (E. Merck, West Germany) and, after developing, a radioactivity was measured by means of radiochromatogram scanner (Packard, U.S.A.) 5-Lipoxygenase activity was calculated by the following equation. [formula]
The results are shown in Table 1 in terms of mean value of 3 to 6 experiments.

[1] = tested on: passive cutaneous anaphylaxis (PCA); assay: Inhibitory effect on passive cutaneous anaphylaxis (PCA) (antiallergic activity in vivo); design: species or system rat (male Wistar); settings: 20 mg/kg oral, 1 hour prior to dye injection; rats; vs control group
Experimental: Male Wistar rats (weighing 130 to 190 g) were injected with a dilute solution (0.1 ml) of mouse antiserum to egg albumin, which was prepared by the method of Levine et al. [Int. Arch. Allergy Appl. […] Forty-eight hours later, 0.5% Evan's blue solution (1 ml) containing 2 mg of egg albumin was intravenously injected to tail vein of the animal. Thirty minutes after the dye injection, abdominal skin was peeled off and the area of the blueing lesions was measured. In each rat, a mean value of the two lesions was regarded as the response of the rat. The test compounds in a dose of 20 mg/kg, dissolved or suspended in a 0.5% aqueous tragacanth solution, were orally administered 1 hour prior to the dye injection.

ddY mice = assay: Acute toxicity; type: in vivo; settings: 1000 mg/kg oral; male ddY mice, 7 days observation
Description: Five male ddY mice weighing 25 to 29 g were used in each group.

SMILES	inhibition at 10 µM (5-lipoxygenase) [%]	also measured
Cc1ccc(C(=O)NCCCCN2CCN(C(c3ccccc3)c3ccccc3)CC2)c(O)n1 [Example 10, N-[4-(4-diphenylmethyl-1-piperazinyl)butyl]-2-hydroxy-6-methylpyridine-3-carboxamide]	–	PCA inhibition (%) [1]: 84.8%
COc1cccc2c(O)c(C(=O)NCCCCN3CCC(=C(c4ccccc4)c4ccccc4)CC3)cnc12 [Example 8, N-[4-(4-diphenylmethylene-1piperidyl)butyl]-4-hydroxy-8-methoxyquinoline-3-carboxamide.cndot.fumarate]	93.3	–
O=C(NCCCCN1CCN(C(c2ccccc2)c2ccccc2)CC1)c1cnc2cccc(O)c2c1O [Example 4, N-[4-(4-diphenylmethyl-1-piperazinyl)butyl]-4,5-dihydroxyquinoline-3-carboxamide]	95.4	–
Cc1ccc2c(O)c(C(=O)NCCCCN3CCN(C(c4ccccc4)c4ccccc4)CC3)cnc2n1 [Example 2, N-[4-(4-diphenylmethyl-1-piperazinyl)butyl]-4-hydroxy-7-methyl-1,8-naphthyridine-3-carboxamide.cndot.1/2 hydrate]	79.6	PCA inhibition (%) [1]: 80.7%
N#Cc1ccc2c(O)c(C(=O)NCCCCN3CCN(C(c4ccccc4)c4ccccc4)CC3)cnc2c1 [Example 7 (7cyano compound), N-[4-(4-diphenylmethyl-1-piperazinyl)butyl]-7-cyano-4-hydroxyquinoline-3-carboxamide]	84.7	–
CC(C)c1ccc(C(=O)NCCCCN2CCN(C(c3ccccc3)c3ccccc3)CC2)c(O)n1 [Example 6, N-[4-(4-diphenylmethyl-1-piperazinyl)butyl]-2-hydroxy-6-isopropylpyridine-3carboxamide]	75.1	death of the animals (ddY mice): no death was observed; PCA inhibition (%) [1]: 93.0%
O=C(NCCCCN1CCN(C(c2ccccc2)c2ccccc2)CC1)c1cnc2ccccc2c1O [Example 12]	83.7	–
COc1cccc2c(O)c(C(=O)NCCCCN3CCN(C(c4ccccc4)c4ccccc4)CC3)cnc12 [Example 3, N-[4-(4-diphenylmethyl-1-piperazinyl)butyl]-4-hydroxy-8-methoxyquinoline-3-carboxamide]	91.3	death of the animals (ddY mice): no death was observed; PCA inhibition (%) [1]: 56.0%
COc1c(C(=O)NCCCCN2CCN(C(c3ccccc3)c3ccccc3)CC2)cnc2ccccc12 [Example 5, N-[4-(4-diphenylmethyl-1-piperazinyl)butyl]-4-methoxyquinoline-3-carboxamide.cndot.1/4 hydrate]	80.3	–
N#Cc1cccc2ncc(C(=O)NCCCCN3CCN(C(c4ccccc4)c4ccccc4)CC3)c(O)c12 [Example 7 (5cyano compound), N-[4-(4-diphenylmethyl-1-piperazinyl)butyl]-5-cyano-4-hydroxyquinoline-3-carboxamide]	92.1	–
Cc1ccc2c(O)c(C(=O)NCCCCN3CCC(=C(c4ccccc4)c4ccccc4)CC3)cnc2n1 [Example 1, N-[4-(4-diphenylmethylene-1-piperidyl)butyl]-4-hydroxy-7-methyl-1,8-naphthyridine-3-carboxamide.cndot.1/4 hydrate]	96.8	death of the animals (ddY mice): no death was observed; PCA inhibition (%) [1]: 88.3%
Cc1ccc2c(S)c(C(=O)NCCCCN3CCN(C(c4ccccc4)c4ccccc4)CC3)cnc2n1 [Example 9, N-[4-(4-diphenylmethyl-1-piperazinyl)butyl]-4-mercapto-7-methyl-1,8-naphthyridine-3-carboxamide.cndot.fumarate.cndot.1/2 hydratet]	88.3	–
Cc1ccc2ncc(C(=O)NCCCCN3CCN(C(c4ccccc4)c4ccccc4)CC3)c(O)c2c1 [Example 14]	93.7	–
CN1CCC(=C2c3ccccc3CC(=O)c3sccc32)CC1 [Ketotifen fumarate, reference compound]	–	5-lipoxygenase inhibitory activity (in words) (5-lipoxygenase; ketotifen fumarate at 10^-4 M): did not show any significant inhibitory activity; PCA inhibition (%) [1]: 54.7%

Second part, led by results:

inhibition at 10 µM (5-lipoxygenase) [%]	SMILES	also measured
95.3	CC(C)c1ccc2ncc(C(=O)NCCCCN3CCN(C(c4ccccc4)c4ccccc4)CC3)c(O)c2c1 [Example 17]	–
93.2	COc1ccc2ncc(C(=O)NCCCCN3CCN(C(c4ccccc4)c4ccccc4)CC3)c(O)c2c1 [Example 18]	–
94.8	CCCCOc1cccc2c(O)c(C(=O)NCCCCN3CCN(C(c4ccccc4)c4ccccc4)CC3)cnc12 [Example 20]	–
90.6	Cc1cccc2c(O)c(C(=O)NCCCCN3CCN(C(c4ccccc4)c4ccccc4)CC3)cnc12 [Example 16]	–
92.8	COc1ccc2c(O)c(C(=O)NCCCCN3CCN(C(c4ccccc4)c4ccccc4)CC3)cnc2c1 [Example 19]	–
93	Cc1ccc2c(O)c(C(=O)NCCCCN3CCN(C(c4ccccc4)c4ccccc4)CC3)cnc2c1 [Example 15]	–
67.9	N#Cc1ccc2ncc(C(=O)NCCCCN3CCN(C(c4ccccc4)c4ccccc4)CC3)c(O)c2c1 [Example 21]	–
